This note sets out measurements from US11491091B2, “Cooling product” (SYMRISE AG, priority 2010, dated 2022).

In the assay the test system is skin of test persons. Put plainly: Cooling effect on the skin as perceived by test persons (panel test). In kind it is in vivo. As to conditions: in each formulation the proportion of 1,2-pentanediol replaced with 1,2-hexanediol at a ratio of 5:3. The text has this: In case of doubt, the perceptibility of the cooling effect is to be determined by means of a panel test wherein the corresponding mixture is applied onto the skin of at least 10 test persons. If in the course of this, preferably in combination with a blind test, 90% of the test persons confirm a cooling effect, then this will preferably correspond to the criteria for the presence of a corresponding effect. Topical applications in terms of the present text are applications where the corresponding active substance or the combination of active substances is brought into contact with the skin or with a mucous membrane. It is especially preferred that the evaluation of a cooling effect and its enhancement is made analog to the application example presented below. […] Provided the corresponding formulations also contained trans-4-tert. butylcyclohexanol, the cooling effect was even further enhanced compared to formulations without this compound.

For the compound `CCCCC(O)CO` (stereo not shown) [1,2-hexanediol], the “cooling effect enhancement after replacement of 1,2-pentanediol” value is reported as “comparable effects are achieved”.
